Reference: patent publication US4211772A, “Benzopyran glycoside acetals and ketals” (Laboratoires Sarget, priority 1977, dated 1980)
In brackets after ≈: the same amount, converted by molar mass. Where two headings read alike, the source gives them in different places.

Experiments:
[1] = Solubilities in water; format: physicochemical; details: for solubility: water, read-out: Solubilities in water
[2] = biological target: T1, Aldose Reductase (Bos taurus, UniProt P16116); assay: Inhibition of aldose reductase in vitro (enzyme from beef eye lenses, glyceraldehyde substrate); format: biochemical; details: in DMF solution, read-out: percentages of inhibition (aldose reductase); for inhibition at 100 µM: 10^-4 mole/l; for inhibition at 10 µM: 10^-5 mole/l
T1 construct: The enzyme is extracted from beef eye lenses; from tissue; host or cells: beef eye lenses
Excerpt: Inhibition of Aldose Reductase In Vitro
The reoxidation of NADPH coupled to the enzymatic reaction was followed spectrophotometrically at 340 nm.

[3] = tested on: galactosemic cataract; assay: Galactosemic cataract in rats; format: in vivo, weaning male EOPS Wistar rats; details: 100 mg/kg/d i.p.
Experimental: GALACTOSEMIC CATARACT IN RATS
The study was conducted using weaning male EOPS Wistar rats having an initial weight of between 45 and 50 g. The animals were fed a high vitamin and high protein regimen containing 20% by weight of galactose. The first signs of cataracts, detected by the ophthalmoscope, appeared beginning with the third day. The animals received daily i.p. doses of the test compound, the treatment being started four days after the commencement of the galactosemic regimen. The evolution of the cataract was followed by the detection of maroon rings visible in the ophthalmoscope. These rings appeared on the external edge of the lens and progressed little by little to its center. Anatomopathological studies of the lenses confirmed that these brown rings correspond well to the characteristic histological lesions of galactosemic cataracts. Photographs taken with the aid of a retinograph facilitated the comparison of the evolution of the lesions.
Statistical calculations according to the .chi.^2 method permit an evaluation of the significance of the results obtained for each of the treatments compared to those for non-treated animals.

[4] = tested on: capillary resistance; assay: Capillaroprotecting effects: capillary resistance; format: in vivo, male OFA EOPS rats
Experimental: (§1) Capillaroprotecting effects
The capillary resistance was determined by a variant of the method of Charlier et al, Arch. Inter. Physiol.

[5] = tested on: capillary permeability; assay: Capillaroprotecting effects: capillary permeability; format: in vivo, conventional male Wistar rats
Experimental: as §1
The capillary permeability was determined by the method of Charlier et al, Arch. Inter. Physiol.

[6] = tested on: carragenin edema; assay: Anti-inflammatory activity: carragenin edema test; format: in vivo; details: Rattus norvegicus, ip, saturated bicarbonate solution, read-out: % inhibition of carragenin edema; for inhibition in vivo at 75 mg/kg: 75 mg/kg i.p.; for inhibition in vivo at 150 mg/kg: 150 mg/kg i.p.
Experimental: Anti-inflammatory activity
This was determined by the carragenin edema test using male Wistar EOPS rats. Inflammation was induced by the injection of 0.1 ml of a suspension of 5% carragenin in physiological serum into the muscular bundle of the metatarsal region of the posterior paw of the animal. The test substance was administered i.p. in neutralized solution at the same time as the carragenin.
Edema was measured by plethysmometry at different times after the administration of the carragenin.
Tables IV and V show the percentages of inhibition as a function of time and of dosage for certain compounds of the present invention.
The above results were obtained for solutions of substantially alkaline
The reference experiments were performed using physiological serum brough
to a pH approximately the same as the pH of the solutions to be tested.

O=c1ccc2cc(O[C@@H]3O[C@H](CO)[C@@H](O)[C@H](O)[C@H]3O)c(O)cc2o1 [Esculin, reference compound] gave a solubility [1] of 1700 µg/mL (≈ 5000 µM) and an inhibition at 100 µM [2] of 16%.

In the case of CC1(C)O[C@@H]2[C@@H](O)[C@H](OC[C@H]3O[C@@H](Oc4c(-c5ccc(O)c(O)c5)oc5cc(O)cc(O)c5c4=O)[C@H](O)[C@@H](O)[C@@H]3O)OC[C@@H]2O1 [No. 4, 3-O-(3,4-O,O-isopropylidene-6-α-L-arabinosyl-β-D-glucosyl)-quercetin], the solubility [1] is reported as 600 µg/mL (≈ 943 µM), the inhibition at 100 µM [2] is reported as 42% and the inhibition at 10 µM [2] is reported as 0%.

In the case of O=c1c(O[C@@H]2O[C@H](CO[C@@H]3OC[C@H](O)[C@H](O)[C@H]3O)[C@@H](O)[C@H](O)[C@H]2O)c(-c2ccc(O)c(O)c2)oc2cc(O)cc(O)c12 [3-Vicianosyl quercetin, reference compound], the solubility [1] is reported as 330 µg/mL (≈ 553 µM), the “percentage of animals which have not yet shown the appearance of cataracts” value ([3]; day 0) is reported as 100% and the “percentage of animals which have not yet shown the appearance of cataracts” value ([3]; day 1) is reported as 100%. The “percentage of animals which have not yet shown the appearance of cataracts” value ([3]; day 2) was 97%, the “percentage of animals which have not yet shown the appearance of cataracts” value ([3]; day 3) was 59% and the “percentage of animals which have not yet shown the appearance of cataracts” value ([3]; day 4) was 40%. The “significance compared to non-treated animals (chi^2)” value ([3]; day 4) was “S”, the “percentage of animals which have not yet shown the appearance of cataracts” value ([3]; day 5) was 31% and the “significance compared to non-treated animals (chi^2)” value ([3]; day 5) was “S”. For the same compound, the “percentage of animals which have not yet shown the appearance of cataracts” value ([3]; day 6) was 12%, the “significance compared to non-treated animals (chi^2)” value ([3]; day 6) was “S” and the “percentage of animals which have not yet shown the appearance of cataracts” value ([3]; day 10) was 9%. For the same compound, the “percentage of animals which have not yet shown the appearance of cataracts” value ([3]; day 12) was 19%, the “significance compared to non-treated animals (chi^2)” value ([3]; day 12) was “S” and the “percentage of animals which have not yet shown the appearance of cataracts” value ([3]; day 16) was 22%. The “significance compared to non-treated animals (chi^2)” value ([3]; day 16) was “S” and the “percentage of animals which have not yet shown the appearance of cataracts” value ([3]; day -4) was 100%.

For CC1(C)OC[C@H]2O[C@@H](Oc3c(-c4ccc(O)c(O)c4)oc4cc(O)cc(O)c4c3=O)[C@H](O)[C@@H](O)[C@@H]2O1 [No. 5, 3-O-(4,6-O,O-isopropylidene-β-D-glucosyl)-quercetin], the solubility [1] was < 100 µg/mL, the inhibition at 100 µM [2] was 83% and the inhibition at 10 µM [2] was 56%. For the same compound, the inhibition at 1 µM ([2]; 10^-6 mole/l) was 0%, the “% of animals for which the effect is ≥ 25 u cm Hg/h” value (“% of animals” for short) ([4]; 50 mg/kg i.p.) was 60% and the “capillary resistance, effect observed” value ([4]; 50 mg/kg i.p.) was 28 ± 9.8 u cm Hg/h. For the same compound, the “% of animals” value ([4]; 100 mg/kg i.p.) was 80%, the “capillary resistance, effect observed” value ([4]; 100 mg/kg i.p.) was 32.25 ± 11.4 u cm Hg/h and the “% of animals” value ([4]; 200 mg/kg i.p.) was 80%. The “capillary resistance, effect observed” value ([4]; 200 mg/kg i.p.) was 37 ± 16.1 u cm Hg/h, the “percentage reduction of capillary permeability” value (shortened to “percentage reduction”) ([5]; 50 mg/kg i.p.) was 11% and the “percentage reduction” value ([5]; 100 mg/kg i.p.) was 34%. The “percentage reduction” value ([5]; 200 mg/kg i.p.) was 28%.

For O=c1c(O[C@@H]2O[C@H](CO)[C@@H](O)[C@H](O)[C@H]2O)c(-c2ccc(O)c(O)c2)oc2cc(O)cc(O)c12 [Isoquercitrin, reference compound], the Solubilities in water [1] was “insoluble”, the inhibition in vivo at 75 mg/kg ([6]; 1/2 h) was 28% and the inhibition in vivo at 150 mg/kg ([6]; 1/2 h) was 30%. It also gave an inhibition in vivo at 75 mg/kg ([6]; 1 h, 1 h) of 32%, an inhibition in vivo at 150 mg/kg ([6]; 1 h, 1 h) of 40% and an inhibition in vivo at 75 mg/kg ([6]; 2 h, 2 h) of 18%. For the same compound, the inhibition in vivo at 150 mg/kg ([6]; 2 h, 2 h) was 37%, the inhibition in vivo at 75 mg/kg ([6]; 3 h, 3 h) was 28% and the inhibition in vivo at 150 mg/kg ([6]; 3 h, 3 h) was 18%. For the same compound, the inhibition in vivo at 75 mg/kg ([6]; 4 h, 4 h) was 22%, the inhibition in vivo at 150 mg/kg ([6]; 4 h, 4 h) was 9% and the inhibition in vivo at 75 mg/kg ([6]; 5 h, 5 h) was 23%. For the same compound, the inhibition in vivo at 150 mg/kg ([6]; 5 h, 5 h) was 9%, the inhibition in vivo at 75 mg/kg ([6]; 6 h, 6 h) was 25% and the inhibition in vivo at 150 mg/kg ([6]; 6 h, 6 h) was 6%.
